Test results published in ChEMBL document CHEMBL1201862, “PubChem BioAssay data set” (2004).
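Interpolation was linear, between the two tested concentrations surrounding the appropriate level; five concentrations were tested over 48 hours in 96-well plates. GI50 = concentration required for 50% inhibition of growth.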 Calls of active or inactive are those of the source. Cut-off read from the data, not from the text of the source: active = GI50 up to about 1.1 µM and inactive = higher.

What was measured:
Assay in all cases: DTP human tumour cell line panel, 48 h
SK-MEL-5 = test system: SK-MEL-5
SK-MEL-2 = test system: SK-MEL-2
M19-MEL = test system: M19-MEL
U-251 = test system: U-251
KM-20L2 = test system: KM-20L2
HCC 2998 = test system: HCC 2998
DMS-273 = test system: DMS-273
A549 = test system: A549
RPMI-8226 = test system: RPMI-8226
SK-MEL-28 = test system: SK-MEL-28
OVCAR-4 = test system: OVCAR-4
UACC-257 = test system: UACC-257
KM12 = test system: KM12
OVCAR-3 = test system: OVCAR-3
NCI-H460 = test system: NCI-H460
HL-60 = test system: HL-60
UACC-62 = test system: UACC-62
NCI-H522 = test system: NCI-H522
EKVX = test system: EKVX
HOP-18 = test system: HOP-18
CCRF-CEM = test system: CCRF-CEM
SR = test system: SR
UO-31 = test system: UO-31
DLD-1 = test system: DLD-1
SNB-75 = test system: SNB-75
786-0 = test system: 786-0
DMS-114 = test system: DMS-114
SK-OV-3 = test system: SK-OV-3
SW-620 = test system: SW-620
SNB-19 = test system: SNB-19
HCT-15 = test system: HCT-15
M14 = test system: M14
SF-268 = test system: SF-268
HCT-116 = test system: HCT-116
Malme-3M = test system: Malme-3M
SNB-78 = test system: SNB-78
COLO 205 = test system: COLO 205
ACHN = test system: ACHN
RXF 393 = test system: RXF 393
SF-539 = test system: SF-539
OVCAR-8 = test system: OVCAR-8
HOP-62 = test system: HOP-62
LXFL 529 = test system: LXFL 529
IGROV-1 = test system: IGROV-1
SN12C = test system: SN12C
RXF 631 = test system: RXF 631
NCI-H226 = test system: NCI-H226
K562 = test system: K562
A498 = test system: A498
TK-10 = test system: TK-10
CAKI-1 = test system: CAKI-1
MOLT-4 = test system: MOLT-4
OVCAR-5 = test system: OVCAR-5
HOP-92 = test system: HOP-92
NCI-H23 = test system: NCI-H23
HT-29 = test system: HT-29
SF-295 = test system: SF-295
LOX IMVI = test system: LOX IMVI
XF498 = test system: XF498

SMILES: O=C1CCCCC12CCC/C2=N\O (configuration not stated)
- GI50 (SK-MEL-5): > 100 µM (inactive)
- GI50 (SK-MEL-2): > 100 µM (inactive)
- GI50 (M19-MEL): > 100 µM (inactive)
- GI50 (U-251): > 100 µM (inactive)
- GI50 (KM-20L2): > 100 µM (inactive)
- GI50 (HCC 2998): > 100 µM (inactive)
- GI50 (DMS-273): > 100 µM (inactive)
- GI50 (A549): > 100 µM (inactive)
- GI50 (RPMI-8226): > 100 µM (inactive)
- GI50 (SK-MEL-28): > 100 µM (inactive)
- GI50 (OVCAR-4): > 100 µM (inactive)
- GI50 (UACC-257): > 100 µM (inactive)
- GI50 (KM12): > 100 µM (inactive)
- GI50 (OVCAR-3): > 100 µM (inactive)
- GI50 (NCI-H460): > 100 µM (inactive)
- GI50 (HL-60): > 100 µM (inactive)
- GI50 (UACC-62): > 100 µM (inactive)
- GI50 (NCI-H522): > 100 µM (inactive)
- GI50 (EKVX): > 100 µM (inactive)
- GI50 (HOP-18): > 100 µM (inactive)
- GI50 (CCRF-CEM): > 100 µM (inactive)
- GI50 (SR): > 100 µM (inactive)
- GI50 (UO-31): > 100 µM (inactive)
- GI50 (DLD-1): > 100 µM (inactive)
- GI50 (SNB-75): > 100 µM (inactive)
- GI50 (786-0): > 100 µM (inactive)
- GI50 (DMS-114): > 100 µM (inactive)
- GI50 (SK-OV-3): > 100 µM (inactive)
- GI50 (SW-620): > 100 µM (inactive)
- GI50 (SNB-19): > 100 µM (inactive)
- GI50 (HCT-15): > 100 µM
- GI50 (M14): > 100 µM (inactive)
- GI50 (SF-268): > 100 µM (inactive)
- GI50 (HCT-116): > 100 µM (inactive)
- GI50 (Malme-3M): > 100 µM (inactive)
- GI50 (SNB-78): > 100 µM (inactive)
- GI50 (COLO 205): > 100 µM (inactive)
- GI50 (ACHN): > 100 µM (inactive)
- GI50 (RXF 393): > 100 µM (inactive)
- GI50 (SF-539): > 100 µM (inactive)
- GI50 (OVCAR-8): > 100 µM (inactive)
- GI50 (HOP-62): > 100 µM (inactive)
- GI50 (LXFL 529): > 100 µM (inactive)
- GI50 (IGROV-1): > 100 µM (inactive)
- GI50 (SN12C): > 100 µM (inactive)
- GI50 (RXF 631): > 100 µM (inactive)
- GI50 (NCI-H226): > 100 µM (inactive)
- GI50 (K562): > 100 µM (inactive)
- GI50 (A498): > 100 µM (inactive)
- GI50 (TK-10): > 100 µM (inactive)
- GI50 (CAKI-1): > 100 µM (inactive)
- GI50 (MOLT-4): > 100 µM (inactive)

SMILES: COc1cc(/C=C/C(=O)c2sc(NNC(C)=O)nc2C)ccc1O
- GI50 (SK-MEL-5): > 100 µM (inactive)
- GI50 (SK-MEL-2): > 100 µM (inactive)
- GI50 (U-251): > 100 µM (inactive)
- GI50 (KM-20L2): > 100 µM (inactive)
- GI50 (OVCAR-5): > 100 µM (inactive)
- GI50 (HOP-92): > 100 µM (inactive)
- GI50 (HCC 2998): > 100 µM (inactive)
- GI50 (DMS-273): > 100 µM (inactive)
- GI50 (A549): > 100 µM (inactive)
- GI50 (RPMI-8226): > 100 µM (inactive)
- GI50 (SK-MEL-28): > 100 µM (inactive)
- GI50 (UACC-257): > 100 µM (inactive)
- GI50 (KM12): > 100 µM (inactive)
- GI50 (OVCAR-3): > 100 µM (inactive)
- GI50 (NCI-H460): > 100 µM (inactive)
- GI50 (HL-60): > 100 µM (inactive)
- GI50 (UACC-62): > 100 µM (inactive)
- GI50 (NCI-H522): > 100 µM (inactive)
- GI50 (EKVX): > 100 µM (inactive)
- GI50 (HOP-18): > 100 µM (inactive)
- GI50 (CCRF-CEM): > 100 µM (inactive)
- GI50 (UO-31): > 100 µM (inactive)
- GI50 (NCI-H23): > 100 µM (inactive)
- GI50 (DLD-1): > 100 µM (inactive)
- GI50 (SNB-75): > 100 µM (inactive)
- GI50 (786-0): > 100 µM (inactive)
- GI50 (DMS-114): > 100 µM (inactive)
- GI50 (SK-OV-3): > 100 µM (inactive)
- GI50 (HT-29): > 100 µM (inactive)
- GI50 (SW-620): > 100 µM (inactive)
- GI50 (HCT-15): > 100 µM
- GI50 (SF-268): > 100 µM (inactive)
- GI50 (Malme-3M): > 100 µM (inactive)
- GI50 (SNB-78): > 100 µM (inactive)
- GI50 (COLO 205): > 100 µM (inactive)
- GI50 (ACHN): > 100 µM (inactive)
- GI50 (SF-295): > 100 µM (inactive)
- GI50 (RXF 393): > 100 µM (inactive)
- GI50 (SF-539): > 100 µM (inactive)
- GI50 (LOX IMVI): > 100 µM (inactive)
- GI50 (OVCAR-8): > 100 µM (inactive)
- GI50 (HOP-62): > 100 µM (inactive)
- GI50 (IGROV-1): > 100 µM (inactive)
- GI50 (SN12C): > 100 µM (inactive)
- GI50 (RXF 631): > 100 µM (inactive)
- GI50 (NCI-H226): > 100 µM (inactive)
- GI50 (K562): > 100 µM (inactive)
- GI50 (A498): 84.3 µM (inactive)
- GI50 (TK-10): > 100 µM (inactive)
- GI50 (CAKI-1): > 100 µM (inactive)
- GI50 (MOLT-4): > 100 µM (inactive)

SMILES: COC(=O)C1=C(C(=O)OC)C2(CCCCCC2=O)OC1=O (configuration not stated)
- GI50 (SK-MEL-5): > 100 µM (inactive)
- GI50 (SK-MEL-2): > 100 µM (inactive)
- GI50 (M19-MEL): > 100 µM (inactive)
- GI50 (U-251): > 100 µM (inactive)
- GI50 (KM-20L2): > 100 µM (inactive)
- GI50 (OVCAR-5): > 100 µM (inactive)
- GI50 (HOP-92): > 100 µM (inactive)
- GI50 (HCC 2998): > 100 µM (inactive)
- GI50 (DMS-273): > 100 µM (inactive)
- GI50 (A549): > 100 µM (inactive)
- GI50 (RPMI-8226): > 100 µM (inactive)
- GI50 (SK-MEL-28): > 100 µM (inactive)
- GI50 (OVCAR-4): > 100 µM (inactive)
- GI50 (UACC-257): > 100 µM (inactive)
- GI50 (KM12): > 100 µM (inactive)
- GI50 (OVCAR-3): > 100 µM (inactive)
- GI50 (NCI-H460): > 100 µM (inactive)
- GI50 (HL-60): > 100 µM (inactive)
- GI50 (UACC-62): > 100 µM (inactive)
- GI50 (NCI-H522): > 100 µM (inactive)
- GI50 (EKVX): > 100 µM (inactive)
- GI50 (CCRF-CEM): > 100 µM (inactive)
- GI50 (XF498): > 100 µM (inactive)
- GI50 (NCI-H23): > 100 µM (inactive)
- GI50 (SNB-75): > 100 µM (inactive)
- GI50 (786-0): > 100 µM (inactive)
- GI50 (DMS-114): > 100 µM (inactive)
- GI50 (SK-OV-3): > 100 µM (inactive)
- GI50 (HT-29): > 100 µM (inactive)
- GI50 (SW-620): > 100 µM (inactive)
- GI50 (SNB-19): > 100 µM (inactive)
- GI50 (HCT-15): > 100 µM
- GI50 (M14): > 100 µM (inactive)
- GI50 (SF-268): > 100 µM (inactive)
- GI50 (HCT-116): > 100 µM (inactive)
- GI50 (Malme-3M): > 100 µM (inactive)
- GI50 (SNB-78): > 100 µM (inactive)
- GI50 (COLO 205): > 100 µM (inactive)
- GI50 (ACHN): > 100 µM (inactive)
- GI50 (SF-295): > 100 µM (inactive)
- GI50 (RXF 393): > 100 µM (inactive)
- GI50 (SF-539): > 100 µM (inactive)
- GI50 (OVCAR-8): > 100 µM (inactive)
- GI50 (HOP-62): > 100 µM (inactive)
- GI50 (LXFL 529): > 100 µM (inactive)
- GI50 (IGROV-1): > 100 µM (inactive)
- GI50 (SN12C): > 100 µM (inactive)
- GI50 (RXF 631): > 100 µM (inactive)
- GI50 (NCI-H226): > 100 µM (inactive)
- GI50 (K562): > 100 µM (inactive)
- GI50 (A498): > 100 µM (inactive)
- GI50 (TK-10): > 100 µM (inactive)
- GI50 (CAKI-1): > 100 µM (inactive)
- GI50 (MOLT-4): > 100 µM (inactive)
